Laboratory results published in article PMC8766756, “Insights on Cancer Cell Inhibition, Subcellular Activities, and Kinase Profile of Phenylacetamides Pending 1H-Imidazol-5-One Variants” (Frontiers in Pharmacology, 2022).

Columns and labels:
Test in all cases: PamChip tyrosine kinase microarray
Format in all cases: biochemical
Conditions in all cases: 0.1 µM, HL60 lysate
[1] = target: T1, EphA4 (P54764) (Homo sapiens, UniProt P54764)
T1 construct: purchased PamGene (PamChip PTK array, Upstream Kinase Analysis)
T1 sequence (P54764 20-986): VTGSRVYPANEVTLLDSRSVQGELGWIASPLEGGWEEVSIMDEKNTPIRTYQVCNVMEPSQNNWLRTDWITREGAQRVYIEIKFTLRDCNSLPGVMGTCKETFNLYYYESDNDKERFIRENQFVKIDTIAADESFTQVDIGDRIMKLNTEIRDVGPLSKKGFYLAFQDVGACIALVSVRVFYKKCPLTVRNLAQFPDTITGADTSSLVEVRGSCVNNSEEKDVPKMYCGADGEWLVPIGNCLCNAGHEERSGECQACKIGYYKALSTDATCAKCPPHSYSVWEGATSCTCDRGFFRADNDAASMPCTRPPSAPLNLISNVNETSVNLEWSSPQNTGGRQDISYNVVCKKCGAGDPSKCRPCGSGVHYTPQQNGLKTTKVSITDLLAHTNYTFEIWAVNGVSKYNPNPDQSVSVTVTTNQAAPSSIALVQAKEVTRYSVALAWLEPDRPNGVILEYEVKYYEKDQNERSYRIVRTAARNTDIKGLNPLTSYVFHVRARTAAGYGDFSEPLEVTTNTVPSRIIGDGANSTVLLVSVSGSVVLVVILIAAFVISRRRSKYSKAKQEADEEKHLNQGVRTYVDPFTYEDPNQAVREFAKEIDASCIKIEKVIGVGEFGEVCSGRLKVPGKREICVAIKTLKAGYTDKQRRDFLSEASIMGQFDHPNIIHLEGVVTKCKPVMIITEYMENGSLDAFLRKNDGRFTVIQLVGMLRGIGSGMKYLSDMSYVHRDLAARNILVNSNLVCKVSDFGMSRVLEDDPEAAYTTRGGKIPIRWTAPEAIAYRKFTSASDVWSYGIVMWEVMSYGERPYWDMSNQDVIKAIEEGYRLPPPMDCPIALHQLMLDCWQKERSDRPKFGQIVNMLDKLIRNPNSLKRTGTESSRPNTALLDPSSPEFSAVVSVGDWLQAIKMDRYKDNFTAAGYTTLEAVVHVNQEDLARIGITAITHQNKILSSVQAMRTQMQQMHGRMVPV
Description: (§1) The reproducible high potency of KIM-161 on leukemia cell lines was initially speculated to encompass Src tyrosine kinase inhibition. Even so, we also suspected that KIM-161 might be affecting other tyrosine kinases because the HL60 cells are not among the most Src-dependent highly proliferative cells ([Collins, 1987]). Therefore, a profiling of the kinase activities was performed after treatment with KIM-161 using PamChip® tyrosine kinase microarray. This analysis is based on incubation of cell lysate with 3D microarray that projects peptides specific for 143 tyrosine kinases. If a kinase is modified in the cells, it will be detected by phosphorylating its specific peptide in the microarray.
(§2) This test measured the activities of an array of tyrosine kinases of treated HL60 cells compared to the control (untreated cells) after incubation with KIM-161 for 48 h at concentrations of 0.001, 0.01, 0.1, 1.0, 10, and 50 µM. The log fold change (LFC) heat map was initially used to identify significant peptides affected at each concentration (Figure 5).
(§3) An Upstream Kinase Tool was used to generate a putative list of kinases responsible for phosphorylating the phosphosites on the PamChip®. It is an interpretation and is highly dependent on the contents of the underlying phosphorylation databases. Kinase score (Table 2) was used for ranking kinases based on their significance and specificity in terms of the set of peptides used for the corresponding kinase. Kinase statistics indicates the overall change of the peptide set that represents a certain kinase. Kinase statistics value of <0 indicates lower kinase activity in the lysate spiked with the compound and vice versa. Table 2 lists the 20 most changed kinases within treated HL60 cell lysates by 0.1 μM KIM-161.
(§4) Every compound had spiked into a leukemic (AML) cell line HL60 lysate at different concentrations (0.001, 0.01, 0.1, 1, 10, and 50 μM). In addition, DMSO had also spiked at a low concentration (2% v/v) to the HL60 lysate as the control. The samples were profiled on PamGene's tyrosine kinase (PTK) arrays in technical replicates, covering a total of 196 phosphorylation sites. The frozen leukemic HL60 cultured cell pellet was sent to PamGene. At PamGene, the cells were lysed in the presence of the lysis buffer and proteases inhibitor cocktail. The protein concentration was measured using the standard Bradford assay as per the PamGene SOPs. These lysates were further used for generating the PTK activity profiles. For spiking, KIM-161 was received in powder form and dissolved in DMSO at the PamGene facility, followed by storing it at −20°C in small aliquots. PamGene used its in-house bioinformatics toolbox in combination with other methods to generate the hypotheses of signaling pathways.

[2] = target: T2, FAK1 (Q05397) (Homo sapiens, UniProt Q05397)
T2 construct: purchased PamGene (PamChip PTK array, Upstream Kinase Analysis)
T2 sequence (Q05397 whole entry): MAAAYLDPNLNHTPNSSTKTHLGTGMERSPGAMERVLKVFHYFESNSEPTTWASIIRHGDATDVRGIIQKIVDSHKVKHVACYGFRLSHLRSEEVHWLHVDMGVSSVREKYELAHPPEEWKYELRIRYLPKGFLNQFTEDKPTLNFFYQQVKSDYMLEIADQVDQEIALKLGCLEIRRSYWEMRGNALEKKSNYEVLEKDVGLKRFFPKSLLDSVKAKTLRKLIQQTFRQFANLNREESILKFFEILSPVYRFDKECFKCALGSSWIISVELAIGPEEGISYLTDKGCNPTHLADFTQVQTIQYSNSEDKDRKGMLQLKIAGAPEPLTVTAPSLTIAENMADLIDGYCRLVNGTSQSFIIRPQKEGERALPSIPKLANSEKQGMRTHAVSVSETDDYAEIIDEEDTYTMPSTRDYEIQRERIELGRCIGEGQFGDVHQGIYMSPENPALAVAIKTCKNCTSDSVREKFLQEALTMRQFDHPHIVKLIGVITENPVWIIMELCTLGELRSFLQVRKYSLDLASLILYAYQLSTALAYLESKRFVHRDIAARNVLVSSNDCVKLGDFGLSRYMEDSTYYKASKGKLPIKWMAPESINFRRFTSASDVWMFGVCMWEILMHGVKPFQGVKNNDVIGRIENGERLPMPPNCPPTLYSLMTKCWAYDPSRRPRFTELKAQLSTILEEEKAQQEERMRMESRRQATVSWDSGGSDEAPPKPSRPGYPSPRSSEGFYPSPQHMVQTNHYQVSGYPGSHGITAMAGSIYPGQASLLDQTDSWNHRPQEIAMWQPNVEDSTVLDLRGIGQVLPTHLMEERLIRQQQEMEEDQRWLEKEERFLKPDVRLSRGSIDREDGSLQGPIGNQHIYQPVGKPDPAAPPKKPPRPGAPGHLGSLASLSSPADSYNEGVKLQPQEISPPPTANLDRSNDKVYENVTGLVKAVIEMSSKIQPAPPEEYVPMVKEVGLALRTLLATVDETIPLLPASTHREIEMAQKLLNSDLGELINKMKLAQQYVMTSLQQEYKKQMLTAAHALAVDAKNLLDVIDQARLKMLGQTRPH
Description: as §1, §2, §3, §4

[3] = target: T3, FAK2 (Q14289) (Homo sapiens, UniProt Q14289)
T3 construct: purchased PamGene (PamChip PTK array, Upstream Kinase Analysis)
T3 sequence (Q14289 whole entry): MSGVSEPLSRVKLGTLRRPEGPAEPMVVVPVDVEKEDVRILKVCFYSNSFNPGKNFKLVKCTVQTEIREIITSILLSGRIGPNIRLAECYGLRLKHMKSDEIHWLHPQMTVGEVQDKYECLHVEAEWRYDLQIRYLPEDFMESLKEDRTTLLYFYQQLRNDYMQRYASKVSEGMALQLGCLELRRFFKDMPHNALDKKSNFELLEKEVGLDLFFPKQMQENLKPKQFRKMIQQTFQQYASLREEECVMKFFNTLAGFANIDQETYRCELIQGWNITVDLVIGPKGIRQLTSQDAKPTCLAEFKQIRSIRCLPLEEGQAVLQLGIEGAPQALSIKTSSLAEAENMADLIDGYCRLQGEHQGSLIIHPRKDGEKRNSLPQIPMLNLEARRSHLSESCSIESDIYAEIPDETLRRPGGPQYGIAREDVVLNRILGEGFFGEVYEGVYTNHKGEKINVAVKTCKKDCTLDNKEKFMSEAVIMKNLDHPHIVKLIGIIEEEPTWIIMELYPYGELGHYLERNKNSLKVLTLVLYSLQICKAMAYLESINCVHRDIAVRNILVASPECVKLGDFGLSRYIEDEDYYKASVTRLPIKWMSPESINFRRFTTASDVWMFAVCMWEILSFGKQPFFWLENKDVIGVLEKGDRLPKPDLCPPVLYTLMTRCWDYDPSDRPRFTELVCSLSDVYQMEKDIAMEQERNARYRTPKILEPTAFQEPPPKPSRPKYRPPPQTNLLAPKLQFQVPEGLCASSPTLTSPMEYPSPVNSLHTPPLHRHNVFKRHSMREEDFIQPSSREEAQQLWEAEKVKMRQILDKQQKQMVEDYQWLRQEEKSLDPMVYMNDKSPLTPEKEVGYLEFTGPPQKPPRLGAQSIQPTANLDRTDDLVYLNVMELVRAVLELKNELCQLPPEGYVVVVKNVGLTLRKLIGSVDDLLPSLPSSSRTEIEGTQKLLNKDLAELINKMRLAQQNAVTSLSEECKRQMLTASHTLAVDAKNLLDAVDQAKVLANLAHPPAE
Description: as §1, §2, §3, §4

[4] = target: T4, TXK (P42681) (Homo sapiens, UniProt P42681)
T4 construct: purchased PamGene (PamChip PTK array, Upstream Kinase Analysis)
T4 sequence (P42681 1-527): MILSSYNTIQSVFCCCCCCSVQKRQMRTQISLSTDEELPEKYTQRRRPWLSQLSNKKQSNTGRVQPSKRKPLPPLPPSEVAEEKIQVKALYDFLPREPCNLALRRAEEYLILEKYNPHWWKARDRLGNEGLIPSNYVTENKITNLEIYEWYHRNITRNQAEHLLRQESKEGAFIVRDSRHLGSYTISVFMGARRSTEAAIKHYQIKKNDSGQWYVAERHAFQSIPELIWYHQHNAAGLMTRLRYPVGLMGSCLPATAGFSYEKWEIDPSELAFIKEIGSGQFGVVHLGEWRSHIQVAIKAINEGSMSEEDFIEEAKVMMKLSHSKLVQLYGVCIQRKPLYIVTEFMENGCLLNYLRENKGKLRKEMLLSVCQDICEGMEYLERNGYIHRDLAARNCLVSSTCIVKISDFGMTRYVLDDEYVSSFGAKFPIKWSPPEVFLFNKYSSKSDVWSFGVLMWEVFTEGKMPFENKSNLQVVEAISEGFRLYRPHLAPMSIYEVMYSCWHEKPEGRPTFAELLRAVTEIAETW
Description: as §1, §2, §3, §4

[5] = target: T5, CSK (P41240) (Homo sapiens, UniProt P41240)
T5 construct: purchased PamGene (PamChip PTK array, Upstream Kinase Analysis)
T5 sequence (P41240 whole entry): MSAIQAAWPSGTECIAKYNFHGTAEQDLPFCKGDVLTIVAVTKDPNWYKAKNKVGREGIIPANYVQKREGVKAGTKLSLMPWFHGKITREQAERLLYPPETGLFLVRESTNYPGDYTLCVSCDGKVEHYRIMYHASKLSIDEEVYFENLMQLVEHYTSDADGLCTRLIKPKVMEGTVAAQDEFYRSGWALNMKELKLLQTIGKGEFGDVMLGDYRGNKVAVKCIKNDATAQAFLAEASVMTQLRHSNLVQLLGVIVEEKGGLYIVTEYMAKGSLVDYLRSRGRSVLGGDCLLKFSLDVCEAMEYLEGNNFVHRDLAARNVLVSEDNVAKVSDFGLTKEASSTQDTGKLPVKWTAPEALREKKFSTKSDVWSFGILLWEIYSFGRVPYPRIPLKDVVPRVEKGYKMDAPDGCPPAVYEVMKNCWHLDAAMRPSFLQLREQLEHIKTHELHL
Description: as §1, §2, §3, §4

[6] = target: T6, HCK (P08631) (Homo sapiens, UniProt P08631)
T6 construct: purchased PamGene (PamChip PTK array, Upstream Kinase Analysis)
T6 sequence (P08631 whole entry): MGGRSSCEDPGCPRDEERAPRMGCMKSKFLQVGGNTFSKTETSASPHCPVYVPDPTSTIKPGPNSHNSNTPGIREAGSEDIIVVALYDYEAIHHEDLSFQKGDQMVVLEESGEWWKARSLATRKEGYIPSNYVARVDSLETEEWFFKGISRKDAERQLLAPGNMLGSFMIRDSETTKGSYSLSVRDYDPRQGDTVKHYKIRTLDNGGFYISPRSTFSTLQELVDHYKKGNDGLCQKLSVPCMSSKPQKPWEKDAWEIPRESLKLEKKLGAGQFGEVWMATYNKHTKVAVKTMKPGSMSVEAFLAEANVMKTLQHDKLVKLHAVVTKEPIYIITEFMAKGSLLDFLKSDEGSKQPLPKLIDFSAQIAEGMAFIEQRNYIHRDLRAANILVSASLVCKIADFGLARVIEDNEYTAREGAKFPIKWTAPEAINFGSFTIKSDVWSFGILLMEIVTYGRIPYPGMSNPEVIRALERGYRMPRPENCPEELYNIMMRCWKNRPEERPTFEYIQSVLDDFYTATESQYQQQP
Description: as §1, §2, §3, §4

COc1ccc(/C=C2\N=C(C)N(c3ccc(CC(=O)NCc4ccccc4)cc3)C2=O)cc1 [Compound 4c, (Z)-N-Benzyl-2-(4-(4-(4-methoxybenzylidene)-2-methyl-5-oxo-4,5-dihydro-1H-imidazol-1-yl)phenyl)acetamide]
Mean Final score (Kinase score) [1]: 1.356 | Mean Kinase Statistic [1]: -0.7819 | Mean Significance Score [1]: 1.252 | Mean Specificity Score [1]: 0.07789 | Mean Final score (Kinase score) [2]: 2.506 | Mean Kinase Statistic [2]: -1.237 | Mean Significance Score [2]: 2.048 | Mean Specificity Score [2]: 0.5313 | Mean Final score (Kinase score) [3]: 2.241 | Mean Kinase Statistic [3]: -1.142 | Mean Significance Score [3]: 2.048 | Mean Specificity Score [3]: 0.216 | Mean Significance Score [4]: 2.048 | Mean Specificity Score [4]: 0.6377 | Mean Final score (Kinase score) ([4]; listed as KIM-161): 2.68 | Mean Significance Score [5]: 2.048 | Mean Specificity Score [5]: 1.0649 | Mean Final score (Kinase score) ([5]; listed as KIM-161): 3.09 | Mean Final score (Kinase score) [6]: 1.871 | Mean Kinase Statistic [6]: -1.0936 | Mean Significance Score [6]: 1.7269 | Mean Specificity Score [6]: 0.1451
